Columns and labels:
Assay type in all cases: cell-based
[1] = system: Escherichia coli strain susceptible to ampicillin and ceftriaxone; experiment: Susceptibility testing by MALDI-TOF mass spectra of culture supernatant, Escherichia coli strain susceptible to ampicillin and ceftriaxone; details: treatment with 8 mg/L; susceptible E. coli strain; FIG. 2
Procedure: (§1) In a first process step 10, approximately ten colonies of microorganisms of the bacterial type Enterobacteriaceae are added to 1 mL of a liquid Müller-Hinton broth nutrient medium. The turbidity of the microorganisms in the liquid nutrient medium is 0.5 on McFarland standards, corresponding to approximately 1.5×10^8 colony forming units/mL.
(§2) In a second process step 20, 5 μL of 5-25 mM, especially 25 mM of a water-soluble salt of malic acid or ascorbic acid, for example sodium malate as an enhancer for Enterobacteriaceae family bacteria is added into the liquid nutrient medium. The enhancer may also be added into the liquid nutrient medium in solid form.
(§3) In a third process step 30, the microorganisms in the nutrient medium are pre-incubated at 37° C. for 30 minutes.
(§4) In a fourth process step 40, a quantity of a chemical agent or antibiotic equal to the threshold level of the given microorganism according to the Clinical and Laboratory Standards Institute is added to the microorganisms in the liquid nutrient medium.
(§5) In a fifth process step 50, the microorganisms in the nutrient medium are incubated at 37° C. for 60 minutes.
(§6) In a sixth process step 60, the microorganisms are removed from the nutrient medium by centrifugation at 10′000 g or 15′000 g for 5 minutes at room temperature. The remaining supernatant is collected in a new experimental tube. […]

[2] = system: Citrobacter ssp strain susceptible to ampicillin and ceftriaxone; experiment: Susceptibility testing by MALDI-TOF mass spectra of culture supernatant, Citrobacter ssp strain susceptible to ampicillin and ceftriaxone; details: treatment with 8 mg/L, FIG. 4
Procedure: as §1, §2, §3, §4, §5, §6

[3] = system: Escherichia coli strain resistant to ampicillin and ceftriaxone; experiment: Susceptibility testing by MALDI-TOF mass spectra of culture supernatant, Escherichia coli strain resistant to ampicillin and ceftriaxone; details: treatment with 8 mg/L; resistant E. coli strain; FIG. 3
Procedure: as §1, §2, §3, §4, §5, §6

SMILES	effect on bacteria as seen in mass spectrum of supernatant (protein/peptide signals) [1]	effect on bacteria as seen in mass spectrum of supernatant (protein/peptide signals) [2]	effect on bacteria as seen in mass spectrum of supernatant (protein/peptide signals) [3]
CC1(C)S[C@@H]2[C@H](NC(=O)[C@H](N)c3ccccc3)C(=O)N2[C@H]1C(=O)O [ampicillin]	has been destroyed	has been destroyed	no further significant signal
CO/N=C(\C(=O)N[C@@H]1C(=O)N2C(C(=O)O)=C(CSc3nc(=O)c(=O)[nH]n3C)CS[C@H]12)c1csc(N)n1 [ceftriaxone]	has been destroyed	has been destroyed	no further significant signal

Source: patent US9376705B2, “Method for detecting susceptibility of microorganisms to chemical agents” (Idmic SA, priority 2012, dated 2016)
